Where two headings read alike, the source gives them in different places.
Experiments:
[1] = test system: HeLa human cervical tumor cells; test: HeLa cell proliferation assay (crystal violet); assay type: cell-based; settings: 96 h, 4 days incubation, read-out: Inhibition of cell proliferation, cell Line: HeLa IC50
human kinase Mps-1 = human kinase Mps-1 (Homo sapiens (Human), UniProt P33981); test: Mps-1 kinase assay (TR-FRET); assay type: biochemical
[2] = Metabolic stability in vitro, rat liver microsomes (calculation of Fmax); assay type: in vitro ADME; settings: maximal oral bioavailability calculated from microsomal half-life, 1 μM
Description: (§1) The metabolic stability of test compounds in vitro was determined by incubating them at 1 μM with a suspension liver microsomes in 100 mM phosphate buffer, pH7.4 (NaH2PO4×H2O+Na2HPO4×2H2O) at a protein concentration of 0.5 mg/mL and at 37° C. The reaction was activated by adding a co-factor mix containing 1.2 mg NADP, 3 IU glucose-6-phosphate dehydrogenase, 14.6 mg glucose-6-phosphate and 4.9 mg MgCl2 in phosphate buffer, pH 7.4. Organic solvent in the incubations was limited to <0.2% dimethylsulfoxide (DMSO) and <1% methanol. During incubation, the microsomal suspensions were continuously shaken and aliquots were taken at 2, 8, 16, 30, 45 and 60 min, to which equal volumes of cold methanol were immediately added. Samples were frozen at −20° C. over night, subsequently centrifuged for 15 minutes at 3000 rpm and the supernatant was analyzed with an Agilent 1200 HPLC-system with LCMS/MS detection.
(§2) The half-life of a test compound was determined from the concentration-time plot. From the half-life the intrinsic clearances were calculated. Together with the additional parameters liver blood flow, specific liver weight and microsomal protein content the hepatic in vivo blood clearance (CL) and the maximal oral bioavailability (Fmax) were calculated for the different species. The following parameter values were used: Liver blood flow—1.3 L/h/kg (human), 2.1 L/h/kg (dog), 4.2 L/h/kg (rat); specific liver weight—21 g/kg (human), 39 g/kg (dog), 32 g/kg (rat); microsomal protein content—40 mg/g.
(§3) With the described assay only phase-I metabolism of microsomes is reflected, e.g. typically oxidoreductive reactions by cytochrome P450 enzymes and flavin mono-oxygenases (FMO) and hydrolytic reactions by esterases (esters and amides).

[3] = Metabolic stability in vitro, human liver microsomes (calculation of Fmax); assay type: in vitro ADME; settings: maximal oral bioavailability calculated from microsomal half-life, 1 μM
Description: as §1, §2, §3

[4] = Metabolic stability in vitro, dog liver microsomes (calculation of Fmax); assay type: in vitro ADME; settings: maximal oral bioavailability calculated from microsomal half-life, 1 μM
Description: as §1, §2, §3

[5] = read-out: Mps-1 Inhibition, IC50 (Assay with 10 μM ATP), 10 μM ATP
[6] = read-out: Mps-1 Inhibition, IC50 (Assay with 2 mM ATP), 2 mM ATP

human kinase Mps-1, sequence (P33981 whole entry): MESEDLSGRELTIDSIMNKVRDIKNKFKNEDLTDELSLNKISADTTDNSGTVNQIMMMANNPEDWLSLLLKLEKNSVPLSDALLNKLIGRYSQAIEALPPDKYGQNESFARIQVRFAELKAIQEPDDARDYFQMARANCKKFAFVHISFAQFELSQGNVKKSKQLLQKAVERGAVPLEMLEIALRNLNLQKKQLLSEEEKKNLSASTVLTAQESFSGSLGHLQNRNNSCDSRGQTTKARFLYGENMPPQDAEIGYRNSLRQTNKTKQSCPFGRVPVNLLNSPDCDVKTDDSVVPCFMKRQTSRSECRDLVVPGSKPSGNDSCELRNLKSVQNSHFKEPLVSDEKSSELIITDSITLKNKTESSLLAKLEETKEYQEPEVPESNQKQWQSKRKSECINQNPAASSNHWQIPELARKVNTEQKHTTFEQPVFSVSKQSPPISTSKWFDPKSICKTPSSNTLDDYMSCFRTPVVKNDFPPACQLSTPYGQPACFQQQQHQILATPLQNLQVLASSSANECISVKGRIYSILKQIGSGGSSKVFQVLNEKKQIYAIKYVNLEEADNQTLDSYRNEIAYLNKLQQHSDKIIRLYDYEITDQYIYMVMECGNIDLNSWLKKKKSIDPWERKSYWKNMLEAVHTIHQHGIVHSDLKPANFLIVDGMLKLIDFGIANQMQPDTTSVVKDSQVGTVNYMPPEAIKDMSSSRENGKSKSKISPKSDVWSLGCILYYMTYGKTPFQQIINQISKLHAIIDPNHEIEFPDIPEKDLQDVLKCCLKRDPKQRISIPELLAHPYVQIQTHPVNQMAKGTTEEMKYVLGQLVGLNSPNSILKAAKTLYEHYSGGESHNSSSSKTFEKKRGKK

| Compound | IC50 [1] [nM] | IC50 (human kinase Mps-1; 2 mM ATP) [nM] | IC50 (human kinase Mps-1; [5]) [nM] | Rat liver microsomes; Fmax [%] [2] [%] | Human liver microsomes; Fmax [%] [3] [%] | Dog liver microsomes; Fmax [%] [4] [%] | IC50 (human kinase Mps-1; [6]) [nM] |
| --- | --- | --- | --- | --- | --- | --- | --- |
| CS(=O)(=O)c1ccc(Nc2nc3ccc(-c4ccc(NC(=O)C(CO)c5ccc(F)cc5)cc4)cn3n2)c(OCC(F)(F)F)c1 (single isomer, unassigned) [Example01.10, (−)-2-(4-fluorophenyl)-3-hydroxy-N-[4-(2-{[4-(methylsulfonyl)-2-(2,2,2-tri-fluoroethoxy)phenyl]amino}[1,2,4]triazolo[1,5-a]pyridin-6-yl)phenyl]-propanamide] | < 200 | 1.1 | < 1 | >95 | >95 | >95 | – |
| CCOc1cc(S(C)(=O)=O)ccc1Nc1nc2ccc(-c3ccc(NC(=O)[C@H](C)c4ccc(F)cc4)cc3)cn2n1 [Example01.02, (2R)—N-[4-(2-{[2-ethoxy-4-(methylsulfonyl)phenyl]amino}[1,2,4]-triazolo[1,5-a]pyridin-6-yl)phenyl]-2-(4-fluorophenyl)propanamide] | < 600 | – | < 1 | 86 | 68 | 73 | < 1 |
| COc1cc(C(N)=O)ccc1Nc1nc2ccc(-c3ccc(NC(=O)[C@H](C)c4ccc(F)cc4)cc3)cn2n1 [Example01.05] | < 100 | 1.2 | < 1 | >95 | >95 | 89 | – |
| C[C@@H](C(=O)Nc1ccc(-c2ccc3nc(Nc4ccc(C(N)=O)cc4OCC(F)(F)F)nn3c2)cc1)c1ccc(F)cc1 [Example01.06, 4-{[6-(4-{[(2R)-2-(4-fluorophenyl)propanoyl]amino}phenyl)[1,2,4]triazolo-[1,5-a]pyridin-2-yl]amino}-3-(2,2,2-trifluoroethoxyl)benzamide] | < 100 | 1.5 | < 1 | 94 | >95 | 81 | – |
| COc1cc(C(=O)N2CCC2)ccc1Nc1nc2ccc(-c3ccc(NC(=O)[C@H](C)c4ccc(F)cc4)cc3)cn2n1 [Example01.08, (2R)—N-[4-(2-{[4-(azetidin-1-ylcarbonyl)-2-methoxyphenyl]amino}[1,2,4]-triazolo[1,5-a]pyridin-6-yl)phenyl]-2-(4-fluorophenyl)propanamide] | – | – | < 1 | 74 | 62 | 75 | < 1 |
| COc1cc(S(C)(=O)=O)ccc1Nc1nc2ccc(-c3ccc(NC(=O)[C@H](C)c4ccc(F)cc4)cc3)cn2n1 [Example 01.01, (2R)-2-(4-fluorophenyl)-N-[4-(2-{[2-methoxy-4-(methylsulfonyl)phenyl]-amino}[1,2,4]triazolo[1,5-a]pyridin-6-yl)phenyl]propanamide] | < 400 | – | – | 92 | 92 | 64 | – |
| C[C@@H](C(=O)Nc1ccc(-c2ccc3nc(Nc4ccc(S(C)(=O)=O)cc4OCC(F)(F)F)nn3c2)cc1)c1ccc(F)cc1 [Example 01.03, (2R)-2-(4-fluorophenyl)-N-[4-(2-{[4-(methylsulfonyl)-2-(2,2,2-trifluoro-ethoxy)phenyl]amino}[1,2,4]triazolo[1,5-a]pyridin-6-yl)phenyl]-propanamide] | – | – | < 1 | 93 | >95 | 55 | < 1 |
| COc1cc(C(=O)N2CC(F)C2)ccc1Nc1nc2ccc(-c3ccc(NC(=O)[C@H](C)c4ccc(F)cc4)cc3)cn2n1 [Example 01.07, (2R)-N-{4-[2-({4-[(3-fluoroazetidin-1-yl)carbonyl]-2-methoxyphenyl}amino)-[1,2,4]triazolo[1,5-a]pyridin-6-yl]phenyl}-2-(4-fluorophenyl)propanamide] | – | – | – | 83 | >95 | 86 | – |
| COc1cc(N2CCOC2=O)ccc1Nc1nc2ccc(-c3ccc(NC(=O)[C@H](C)c4ccc(F)cc4)cc3)cn2n1 [Example 01.09, (2R)-2-(4-fluorophenyl)-N-[4-(2-{[2-methoxy-4-(2-oxo-1,3-oxazolidin-3-yl)phenyl]amino}[1,2,4]triazolo[1,5-a]pyridin-6-yl)phenyl]propanamide] | – | – | – | 58 | 49 | 48 | – |
| N#Cc1c(F)cccc1Nc1nc2ccc(-c3ccc(NC(=O)Cc4ccc(F)cc4)cc3)cn2n1 [reference compound] | – | – | – | – | – | 15 | – |
| COc1ccccc1Nc1nc2ccc(-c3ccc(NC(=O)Cc4ccccc4)cc3)cn2n1 [reference compound] | – | – | – | 40 | – | – | – |
| N#Cc1ccccc1Nc1nc2ccc(-c3ccc(NC(=O)Cc4ccc(F)cc4)cc3)cn2n1 [reference compound] | – | – | – | 40 | – | – | – |
| COC(C(=O)Nc1ccc(-c2ccc3nc(Nc4ccccc4C#N)nn3c2)cc1)c1ccccc1 (centres unmarked) [reference compound] | – | – | – | 19 | – | – | – |
| N#Cc1ccccc1Nc1nc2ccc(-c3ccc(NC(=O)C(F)(F)c4ccccc4)cc3)cn2n1 [reference compound] | – | – | – | 27 | – | – | – |
| N#Cc1ccccc1Nc1nc2ccc(-c3ccc(NC(=O)C(F)c4ccccc4)cc3)cn2n1 (centres unmarked) [reference compound] | – | – | – | 26 | – | – | – |
| COc1cc(C(=O)N2CCOCC2)ccc1Nc1nc2ccc(-c3ccc(NC(=O)Cc4ccc(F)cc4)cc3)cn2n1 [reference compound] | – | – | – | 48 | – | – | – |
| CCOc1cc(S(C)(=O)=O)ccc1Nc1nc2ccc(-c3ccc(C(=O)NCc4ccc(F)cc4)c(C)c3)cn2n1 [reference compound] | – | – | – | – | – | 12 | – |
| COc1cc(C(=O)NCC(F)(F)F)ccc1Nc1nc2ccc(-c3ccc(NC(=O)Cc4ccc(F)cc4)cc3)cn2n1 [reference compound] | – | – | – | – | – | 40 | – |
| COc1cc(N2CCOC2=O)ccc1Nc1nc2ccc(-c3ccc(NC(=O)Cc4ccc(F)cc4)cc3)cn2n1 [reference compound] | – | – | – | – | – | 17 | – |
| COc1cc(S(C)(=O)=O)ccc1Nc1nc2ccc(-c3ccc(NC(=O)Cc4ccc(F)cc4)cc3)cn2n1 [reference compound] | – | – | – | – | – | 10 | – |
| CS(=O)(=O)c1ccc(Nc2nc3ccc(-c4ccc(NC(=O)Cc5ccc(F)cc5)cc4)cn3n2)c(OCC(F)(F)F)c1 [reference compound] | – | – | – | – | – | 25 | – |

Source: patent US9663510B2, “Substituted triazolopyridines and their use as TTK inhibitors” (Bayer Intellectual Property GmbH, priority 2011, dated 2017)
